Results on 3 compounds are retold here after patent US20230405094A1, “TREATMENT OR PREVENTION OF A DISEASE OR DISORDER” (Janssen Sciences Ireland Unlimited Company, priority 2020, published 2023).

Data set [1] relates to non-castrate hormone-sensitive and bicalutamide-resistant human prostate cancer xenograft models. The settings on record: cited from earlier work.
Another data set has as its target AR (Homo sapiens, UniProt P10275). The settings on record: cited from earlier work.
Data set [2] in a line: Plasma kinetics after single subcutaneous dose of rilpivirine nanosuspension with or without rHuPH20 (Example 1). It counts as in vivo, minipigs. The settings on record: minipig, single SC dose 900 mg/3 mL, N=3. The protocol: Six minipigs with body weights ranging from 20 to 25 kg at the start of the study were used. The minipigs were fasted overnight before dosing. Three minipigs were dosed subcutaneously in the loin with 0.19 mL of the hyaluronidase solution (10,000 U/mL) followed by 900 mg/3 mL of the drug nanosuspension at the same injection site (treatment group A). Three minipigs were dosed subcutaneously in the loin with the 900 mg/3 mL of the control drug suspension (treatment group B—control). The injection volume was 3 mL drug suspension in both treatment groups. Method—Sequential Administration • 1. Flip-off rHuPH20 solution vial flip cap and wipe with isopropyl alcohol wipe. Allow to dry. Attach an 18G transfer needle to a 1 mL syringe. • 2. Draw 0.35 mL into the syringe. • 3. Prime the syringe and set liquid level to 0.25 mL in the syringe. • 4. Remove transfer needle and attach syringe cap to 1 mL syringe. • 5. Mix rilpivirine by horizontally shaking the container 30 times over approximately 25 cm within approximately 10 s (a back and forth arm movement=2 times). Ensure well mixed/fully re-supended. • 6. Flip-off rilpivirine vial flip cap and wipe with isopropyl alcohol wipe. Allow to dry. • 7. Attach 18G transfer needle to 5 mL syringe. • 8. Invert vial and draw >3.2 mL into 5 mL syringe mL (or as much as can be removed from vial). Injecting 1-2 mL of air will facilitate draw. • 9. Detach needle and attach a syringe cap to 5 mL syringe • 10. Invert syringe. Wait 5 minutes for bubbles to settle. • 11. Attach a winged infusion set to the rHuPH20 1 mL syringe. Invert syringe and prime off air so that liquid forms at the tip of the needle. (0.19 mL of rHuPH20 should be in the line) • 12. […] Plasma samples were analysed individually by means of a validated LC-MS/MS method. Pharmacokinetic Data Analysis • The pharmacokinetic profile of the blood plasma samples was evaluated using non-compartmental pharmacokinetic analysis (using individual Cp vs time profiles). Mean plasma concentrations and PK parameters (Cmax, Tmax, t1/2 and AUC values) were measured and the results are provided in Table 1.

Chain of AR (P10275 whole entry): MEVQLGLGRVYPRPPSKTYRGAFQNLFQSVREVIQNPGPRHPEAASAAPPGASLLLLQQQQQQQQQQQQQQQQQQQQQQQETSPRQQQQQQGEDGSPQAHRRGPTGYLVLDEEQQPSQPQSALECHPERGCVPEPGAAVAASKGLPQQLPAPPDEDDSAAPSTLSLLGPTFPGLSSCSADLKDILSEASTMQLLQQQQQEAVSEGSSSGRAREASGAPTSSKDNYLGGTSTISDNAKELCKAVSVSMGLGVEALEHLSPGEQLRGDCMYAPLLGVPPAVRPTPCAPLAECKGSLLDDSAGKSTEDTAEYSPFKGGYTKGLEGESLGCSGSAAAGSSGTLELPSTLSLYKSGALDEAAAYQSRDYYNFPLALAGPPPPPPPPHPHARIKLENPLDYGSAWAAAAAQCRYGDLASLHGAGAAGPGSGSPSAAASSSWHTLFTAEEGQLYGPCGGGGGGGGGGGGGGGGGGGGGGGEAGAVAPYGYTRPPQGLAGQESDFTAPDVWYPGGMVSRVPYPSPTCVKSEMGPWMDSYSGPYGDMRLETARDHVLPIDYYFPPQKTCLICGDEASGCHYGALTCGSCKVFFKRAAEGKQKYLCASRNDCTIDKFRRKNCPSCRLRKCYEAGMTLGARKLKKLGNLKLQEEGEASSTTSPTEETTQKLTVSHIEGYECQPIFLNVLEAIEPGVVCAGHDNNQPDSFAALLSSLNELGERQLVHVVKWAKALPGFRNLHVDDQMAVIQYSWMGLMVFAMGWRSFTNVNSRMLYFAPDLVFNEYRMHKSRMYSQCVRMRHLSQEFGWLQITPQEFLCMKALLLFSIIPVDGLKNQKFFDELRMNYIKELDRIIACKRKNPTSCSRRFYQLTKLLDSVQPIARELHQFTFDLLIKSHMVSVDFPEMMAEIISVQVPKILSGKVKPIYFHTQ

For `CNC(=O)c1ccc(N2C(=S)N(c3cnc(C#N)c(C(F)(F)F)c3)C(=O)C23CCC3)cc1F` [Apalutamide, 4-[7-(6-cyano-5-trifluoromethylpyridin-3-yl)-8-oxo-6-thioxo-5,7-diazaspiro[3.4]oct-5-yl]-2-fluoro-N-methylbenzamide], in data set [1], the tumor response result is “partial or complete tumor regression”.

`CC(O)c1cc(C(=O)N[C@@H](C)Cn2ccc(-c3ccc(C#N)c(Cl)c3)n2)n[nH]1` (stereo partly drawn) [Darolutamide, N-{(2S)-1-[3-(3-chloro-4-cyanophenyl)-1H-pyrazol-1-yl]propan-2-yl}-5-(1-hydroxyethyl)-1H-pyrazole-3-carboxamide]: on AR, the AR binding affinity entry is “high affinity”.

In data set [2] (median), `Cc1cc(/C=C/C#N)cc(C)c1Nc1ccnc(Nc2ccc(C#N)cc2)n1` [Rilpivirine, 4-[[4-[[4-[(1E)-2-cyanoethenyl]-2,6-dimethylphenyl]amino]-2-pyrimidinyl]amino]benzonitrile] yielded a Tlast of 2160 h. Also, the λz in data set [2] is 0.0009 ± 0.00009 h⁻¹. In data set [2] (plasma), this compound had an AUC(0-inf) of 27000 ± 3200 ng·h/mL.

In general, AUC(0-inf) refers to total exposure, with the tail of the curve extrapolated. A lower AUC(0-inf) goes with less exposure.
